Measurements from US20230414583A1, “LYSERGIC ACID DERIVATIVES WITH MODIFIED LSD-LIKE ACTION” (Mind Medicine, Inc., priority 2022, published 2023).

Key:
[1] = 5R,8S epimer; cited from earlier work
[2] = Microsomal assays: stability in pooled human liver microsomes, LC-MS/MS; type: in vitro ADME; details: 10 nM; for microsomal metabolism compared with LSD: incubations over 4 hours
From the text: Given its fast metabolism, it is likely not active orally but is a candidate for intravenous administration in particular as an infusion and expected to then produce short-lasting or also maintained effects that can rapidly be terminated upon stopping the infusion. […] However, it is important to note that in addition to the metabolic profile, other factors such as 5-HT2A receptor activity are important to consider when choosing promising drug candidates for therapeutic applications. In addition, in vivo experiments are necessary further assessing the clinical pharmacokinetics of these substances.
Microsomal assays: The objective of this experiment was the investigation of the microsomal stability of 10 novel lysergamides (FIGS. 13A-13J) in order to make predictions about whether any of the derivatives may be clinically faster metabolized than lysergic acid diethylamide (LSD). The test substances were incubated with human liver microsomes for 4 hours and the metabolic degradation was then measured by liquid chromatography-tandem mass spectrometry (LC-MS/MS). In brief, LSD and the derivatives (10 nM) were incubated in the presence of pooled human liver microsomes for 4 hours. The microsomal reaction mixture contained 464.5 μL phosphate-buffered saline, 25 μL nicotinamide adenine dinucleotide phosphate (NADPH) solution A (1:20 dilution, #451220, lot: 0344003; Corning Life Sciences B.V) and 5 μL Solution B (1:100 dilution, #451200, lot: 0342002; Corning Life Sciences B.V), 5 μL liver microsomes (150 donors, 20 mg/mL, #452117, lot: 38296; Corning Life Sciences B.V., Amsterdam, The Netherlands), and 0.5 μL test drugs (10 μM). Samples (50 μL) were taken 2 minutes prior to microsomal incubation (t0) and 0.5, 1, 2, 3, and 4 hours after initiation of the microsomal reaction. A total of five assays were performed per substance. The amount of the test substances (peak area) exposed to human liver microsomes for 4 hours was compared relative to a concentration of 10 nM (t0, 100% peak area). Linear regression slopes were plotted to compare the degradation of the derivatives and LSD. None of the TRALA derivatives were metabolized to LSD (data not shown).

5-HT2A = details: cited from earlier work
LSD-trained rats = details: even at 20× of the full active dose of LSD; cited from earlier work
[3] = Chemical stability under basic and acidic conditions (HPLC MS); type: physicochemical
Procedure: General preparation and equipment information: NMR was performed on a Bruker NMR (^1H: 300 MHz and ^19F: 282 MHz) at ambient temperature. Reaction controls were performed by silica gel TLC (F254; UV detection) and HPLC UV & MS (Agilent 1100, UV at 210 nm and 313 nm, Waters SQD, ESI+ mode) under basic as well as acidic conditions (solvents: A: either 0.02% NH4OH in water or 0.05% TFA in water, B: acetonitrile, gradients from 5% to 95% B, reversed phase C18 HPLC column). All reactions, workups, drying steps, and storing were performed under exclusion of daylight and of electric light such as neon lighting or light bulbs containing wavelengths of the blue and/or UV spectrum. Working was performed in either light-excluding lab ware or under orange to red light (UV free LED). This helps to prevent decompositions of the compounds. Further on, reactions und some purifications can be performed under protecting gas such as Nitrogen or Argon to further protect the compounds from decompositions. Purifications were performed by using silica gel column chromatography and organic solvents such as mixtures of an alcohol (MeOH or EtOH) and dichloromethane, and in some cases, 0.1% to 1% of NH4OH 25% or 0.1% to 1% NEt3 was added. In a similar way, preparative TLC (silica gel) using the aforementioned solvents was applied as well. Working safety: a suitable personal protecting ware common to lab works and fume hoods with a movable glass window were used. Possible contaminations on e.g., gloves or surfaces can quickly be detected by having a long-wave UV lamp (e.g., 366 nm) at hands, preventing further distribution of active materials. Typically, compounds bearing an intact lysergic acid amide substructure, show a strong blueish fluorescence even in trace amounts. Quick deactivation of the potential central effects of these compounds can be performed by using, e.g., a mixture of bleach and diluted alcohol.
9,10-Didehydro-N-ethenyl-N-ethyl-6-methylergoline-8R-carboxamide (TRALA-12), 21. […]

[4] = humans; psilocin: unconjugated, average; cited from earlier work

## CCN(CC)C(=O)[C@H]1C=C2c3cccc4[nH]cc(c34)C[C@H]2N(C)C1 [iso-LSD]
[1]
  psychoactivity in humans: inactive up to several milligrams

## C=C(F)CN1C[C@H](C(=O)N(CC)CC)C=C2c3cccc4[nH]cc(c34)C[C@H]21 [Compound 12c, 9,10-Didehydro-N,N-diethyl-6-(2-fluoro-1-propen-3-yl)ergoline-8R-carboxamide]
[2]
  microsomal metabolism compared with LSD: significantly faster metabolized than LSD

## CCN(CC)C(=O)[C@@H]1C=C2c3cccc4[nH]cc(c34)C[C@H]2NC1 [6-Nor-LSD, 9,10-Didehydro-N,N-diethylergoline-8R-carboxamide]
5-HT2A; Luethi et al., 2019
  binding to 5-HT2A in more recent binding assays: high-potency binding to 5-HT2A
5-HT2A; relative to LSD (Hoffmann, 1987)
  loss of 5-HT2A binding affinity on N6-demethylation of LSD: 30 factor
LSD-trained rats
  ability to substitute in LSD-trained rats: loss of its 5-HT2A binding affinity (factor 30) and the ability to substitute in LSD-trained rats

## C#CCN(CC)C(=O)[C@@H]1C=C2c3cccc4[nH]cc(c34)C[C@H]2N(CCF)C1 [Compound 16a, 9,10-Didehydro-N-ethyl-N-propyn-3-yl-6-(2-fluoroethyl)ergoline-8R-carboxamide]
[2]
  microsomal metabolism compared with LSD: significantly faster metabolized than LSD

## C=CN(CC)C(=O)[C@@H]1C=C2c3cccc4[nH]cc(c34)C[C@H]2N(C)C1 [Compound 2l, 9,10-Didehydro-N-ethenyl-N-ethyl-6-methylergoline-8R-carboxamide]
[2]
  time after which the majority of substance was metabolized: 30 min
  microsomal metabolism compared with LSD: significantly faster metabolized than LSD
[3]; 0.02% NH4OH in water or 0.05% TFA in water / acetonitrile
  stability against basic or acidic HPLC MS conditions: stability against these conditions

## CCN(C=C(F)F)C(=O)[C@@H]1C=C2c3cccc4[nH]cc(c34)C[C@H]2N(C)C1 [Compound 2m, 9,10-Didehydro-N-(2,2-difluoroethenyl)-N-ethyl-6-methylergoline-8R-carboxamide]
[3]; hydrolyzed sample stored at ambient temperature overnight
  chemical stability, basic conditions: remained intact
[3]; hydrolyzed sample with excess tartaric acid, stored for 24h
  chemical stability, acidic conditions: the same product distribution as after initial hydrolysis of the reaction

## CCN(CC)C(=O)[C@@H]1C=C2c3cccc4[nH]cc(c34)C[C@H]2N(C)C1 [LSD, 9,10-Didehydro-N,N-diethyl-6-methylergoline-8R-carboxamide]
[4]
  plasma half-life: approximately 4 hours

## C#CCN(CC)C(=O)[C@@H]1C=C2c3cccc4[nH]cc(c34)C[C@H]2N(CC(=C)F)C1 [Compound 16b, 9,10-Didehydro-N-ethyl-N-propyn-3-yl-6-(2-fluoro-1-propen-3-yl)ergoline-8R-carboxamide]
[2]
  microsomal metabolism compared with LSD: significantly faster metabolized than LSD
